Here are results for 16 compounds from patent US20260200921A1, “SUBSTITUTED AMINOPYRIDINE COMPOUNDS AS AKT INHIBITORS” (Atavistik Bio, Inc., priority 2023, published 2026).

pIC50: −log10 of the molar value.

For one assay, the target named is T1, AKT1 E17K (Homo sapiens, UniProt P31749, E17K).
T1 construct: Purified human recombinant kinase full-length AKT1 E17K was expressed in insect cells; made in house; host or cells: insect cells
The assay can be described thus: AKT1 E17K kinase assay (TR-FRET, Lance). The format is biochemical. To be noted: full-length human recombinant AKT1 E17K activated by PDPK1; Ulight-CREBtide substrate; either 50 μM ATP or 2 mM ATP. As to the method: AKT1 E17K kinase assay: Inhibitory effects of compounds on AKT1 E17K were undertaken in a 10-pt dose response kinase activity assay measuring phospho-peptide product formation based on TR-FRET signal as described in the following paragraph.
(§1) Purified human recombinant kinase full-length AKT1 E17K was expressed in insect cells and activated in vitro by PDPK1. Ulight™-CREBtide (PerkinElmer, catalog number TRF0107) was used as the peptide substrate. The reaction buffer consisted of 50 mM HEPES pH 7.5, 10 mM MgCl2, 0.01% Triton X-100, 0.01% BSA, 2 mM DTT, 0.6 nM AKT1 E17K, 50 nM Ulight™-CREBtide and either 50 μM ATP or 2 mM ATP. The compound solution was prepared as 10 mM DMSO stock. For the assay, a 1:3 serial dilution 10-pt dose response of test compounds, in duplicate, for each concentration were dispensed into a 384-well plate (Corning, catalog number 4513). Final DMSO concentration in the assay was 1%. The enzyme mixture (5 μL, 1.2 nM) were added and the mixture was incubated for 15 min at RT prior to the start of the kinase reaction by the addition of 5 μL substrate mixture (100 nM Ulight™-CREBtide). The reaction was stopped after 60 min of incubation at RT by the addition of 10 μL of Detection Mix (PerkinElmer, #CR97-100) consisting of Europium-anti-phospho-CREB (Ser133) (Perkin Elmer, catalog numberTRF0200). Incubation with the detection mix for a further 60 min allowed binding of antibody to the phospho-Ulight™ CREBtide. The fluorescence emissions at 620 nm and 665 nm after excitation at 350 nm was measured using Envision reader. The ratio of the emissions at 665 nm and at 620 nm provided the measure for the amount of phosphorylated CREBtide product of AKT1 E17K kinase activity. To determine the IC50 values, the data was normalized (enzyme reaction without inhibitor=0% inhibition, all other assay components but no enzyme=100% inhibition) and IC50 values were calculated by a 4-parameter fit using an in-house developed protocol.

In a further assay the target is T2, wildtype AKT1 (Homo sapiens, UniProt P31749).
T2 construct: Purified human recombinant kinase full-length wildtype AKT1 was expressed in insect cells; made in house; host or cells: insect cells
T2 sequence (P31749 whole entry): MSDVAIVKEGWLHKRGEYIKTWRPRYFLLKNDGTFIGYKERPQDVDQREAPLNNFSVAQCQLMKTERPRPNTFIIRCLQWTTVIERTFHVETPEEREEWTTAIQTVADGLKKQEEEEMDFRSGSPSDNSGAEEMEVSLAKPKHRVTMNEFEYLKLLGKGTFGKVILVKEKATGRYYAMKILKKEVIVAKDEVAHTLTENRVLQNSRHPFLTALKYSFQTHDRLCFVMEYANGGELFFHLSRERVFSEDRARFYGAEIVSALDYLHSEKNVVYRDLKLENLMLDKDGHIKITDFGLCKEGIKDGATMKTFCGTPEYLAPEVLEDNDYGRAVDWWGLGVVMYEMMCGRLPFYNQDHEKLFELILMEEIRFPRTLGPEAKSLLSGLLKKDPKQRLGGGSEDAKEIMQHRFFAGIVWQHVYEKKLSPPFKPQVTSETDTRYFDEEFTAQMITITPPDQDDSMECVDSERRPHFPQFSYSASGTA
Put plainly: AKT1 kinase assay, wildtype (TR-FRET, Lance). To be noted: full-length human recombinant wildtype AKT1 activated by PDPK1; Ulight-CREBtide substrate; either 50 μM ATP or 2 mM ATP. The format is biochemical. The protocol: AKT1 kinase assay: Inhibitory effects of compounds on wildtype AKT1 were undertaken in a 10-pt dose response kinase activity assay measuring phospho-peptide product formation based on TR-FRET signal as described in the following paragraph.
as §1, with “full-length wildtype” for “full-length”, “AKT1” for “AKT1 E17K”, “nM AKT1,” for “nM AKT1 E17K,”, “Mix (PerkinElmer.” for “Mix (PerkinElmer,”

T1 sequence (P31749 whole entry E17K): as the sequence (P31749 whole entry) above, with E17K counted along it

Regarding `Cc1cc(O)n(-c2ccc(C(=O)NCc3ccc(-n4c(-c5cccnc5N)nc5ccc(-c6ccccc6)nc54)cc3)cc2)n1` [Compound I-1, N-(4-(2-(2-aminopyridin-3-yl)-5-phenyl-3H-imidazo[4,5-b]pyridin-3-yl)benzyl)-4-(3-methyl-5-oxo-4,5-dihydro-1H-pyrazol-1-yl)benzamide], the negative-log IC50 (pIC50) at AKT1 E17K is 6.70 to 7.30; at wildtype AKT1 it was > 6.30.

In the case of `COc1cc(C)nn1-c1ccc(C(=O)NCc2ccc(-n3c(-c4cccnc4N)nc4ccc(-c5ccccc5)nc43)cc2)cc1` [Compound I-2, N-(4-(2-(2-aminopyridin-3-yl)-5-phenyl-3H-imidazo[4,5-b]pyridin-3-yl)benzyl)-4-(5-methoxy-3-methyl-1H-pyrazol-1-yl)benzamide], the results for the pIC50 on AKT1 E17K and on wildtype AKT1 were 6.30 to 6.70 and > 6.30, respectively.

Consider `Cc1cc(O)n(-c2cccc(C(=O)NCc3ccc(-n4c(-c5cccnc5N)nc5ccc(-c6ccccc6)nc54)cc3)c2)n1` [Compound I-3, N-(4-(2-(2-aminopyridin-3-yl)-5-phenyl-3H-imidazo[4,5-b]pyridin-3-yl)benzyl)-3-(5-hydroxy-3-methyl-1H-pyrazol-1-yl)benzamide], for which the pIC50 at AKT1 E17K is ≤ 6.30; at wildtype AKT1 it was > 6.30.

Turning to `Cc1cc(O)n(-c2ccc(C(=O)NCc3ccc(-n4c(-c5cccnc5N)nc5ccc(-c6ccccc6)nc54)cc3)c(F)c2)n1` [Compound I-4, N-[[4-[2-(2-amino-3-pyridyl)-5-phenyl-imidazo[4,5-b]pyridin-3-yl]phenyl]methyl]-2-fluoro-4-(5-hydroxy-3-methyl-pyrazol-1-yl)benzamide], the pIC50 is 6.70 to 7.30 on AKT1 E17K and > 6.30 on wildtype AKT1.

Turning to `Cc1cc(O)n(-c2ccc(C(=O)NCc3ccc(-n4c(-c5cccnc5N)nc5ccc(-c6ccccc6)nc54)cc3)cc2F)n1` [Compound I-5, N-[[4-[2-(2-amino-3-pyridyl)-5-phenyl-imidazo[4,5-b]pyridin-3-yl]phenyl]methyl]-3-fluoro-4-(5-hydroxy-3-methyl-pyrazol-1-yl)benzamide], the pIC50 at AKT1 E17K is 6.70 to 7.30; at wildtype AKT1 it was > 6.30.

As to `Nc1ncccc1-c1nc2ccc(-c3ccccc3)nc2n1-c1ccc(CNC(=O)c2ccc(-n3nc(C(F)(F)F)cc3O)cc2)cc1` [Compound I-6, N-(4-(2-(2-aminopyridin-3-yl)-5-phenyl-3H-imidazo[4,5-b]pyridin-3-yl)benzyl)-4-(5-hydroxy-3-(trifluoromethyl)-1H-pyrazol-1-yl)benzamide], the pIC50 on AKT1 E17K is 6.30 to 6.70; at wildtype AKT1 it was > 6.30.

As for `Nc1ncccc1-c1nc2ccc(-c3ccccc3)nc2n1-c1ccc(CNC(=O)c2cccc(-n3nc(C(F)(F)F)cc3O)c2)cc1` [Compound I-7, N-(4-(2-(2-aminopyridin-3-yl)-5-phenyl-3H-imidazo[4,5-b]pyridin-3-yl)benzyl)-3-(5-hydroxy-3-(trifluoromethyl)-1H-pyrazol-1-yl)benzamide], the pIC50 was ≤ 6.30 at AKT1 E17K and > 6.30 on wildtype AKT1.

In the case of `Nc1ncccc1-c1nc2ccc(-c3ccccc3)nc2n1-c1ccc(CNC(=O)c2ccc(-n3nc(-c4ccccc4)cc3O)cc2)cc1` [Compound I-8, N-(4-(2-(2-aminopyridin-3-yl)-5-phenyl-3H-imidazo[4,5-b]pyridin-3-yl)benzyl)-4-(5-hydroxy-3-phenyl-1H-pyrazol-1-yl)benzamide], the negative-log IC50 (pIC50) at AKT1 E17K was ≤ 6.30; at wildtype AKT1, > 6.30.

Turning to `COC(=O)Cc1cc(O)n(-c2ccc(C(=O)NCc3ccc(-n4c(-c5cccnc5N)nc5ccc(-c6ccccc6)nc54)cc3)cc2)n1` [Compound I-9, Methyl 2-(1-(4-((4-(2-(2-aminopyridin-3-yl)-5-phenyl-3H-imidazo[4,5-b]pyridin-3-yl)benzyl)carbamoyl)phenyl)-5-hydroxy-1H-pyrazol-3-yl)acetate], the pIC50 at AKT1 E17K is 6.70 to 7.30; at wildtype AKT1, > 6.30.

`Nc1ncccc1-c1nc2ccc(-c3ccccc3)nc2n1-c1ccc(CNC(=O)c2ccc(-n3nc(CC(=O)O)cc3O)cc2)cc1` [Compound I-10, 2-(1-(4-((4-(2-(2-aminopyridin-3-yl)-5-phenyl-3H-imidazo[4,5-b]pyridin-3-yl)benzyl)carbamoyl)phenyl)-5-hydroxy-1H-pyrazol-3-yl)acetic acid]: the pIC50 on AKT1 E17K is > 7.30; on wildtype AKT1, > 6.30.

On to `Nc1ncccc1-c1nc2ccc(-c3ccccc3)nc2n1-c1ccc(CNC(=O)c2ccc(-n3cc(C(=O)O)cn3)cc2)cc1` [Compound I-11, 1-(4-((4-(2-(2-aminopyridin-3-yl)-5-phenyl-3H-imidazo[4,5-b]pyridin-3-yl)benzyl)carbamoyl)phenyl)-1H-pyrazole-4-carboxylic acid], for which the negative logarithm of the IC50 (pIC50) on AKT1 E17K is > 7.30; at wildtype AKT1, > 6.30.

`N#Cc1cnn(-c2ccc(C(=O)NCc3ccc(-n4c(-c5cccnc5N)nc5ccc(-c6ccccc6)nc54)cc3)cc2)c1` [Compound I-12, N-(4-(2-(2-aminopyridin-3-yl)-5-phenyl-3H-imidazo[4,5-b]pyridin-3-yl)benzyl)-4-(4-cyano-1H-pyrazol-1-yl)benzamide]: the negative-log IC50 (pIC50) was 6.30 to 6.70 on AKT1 E17K and > 6.30 at wildtype AKT1.

In the case of `Cc1cc(C#N)n(-c2ccc(C(=O)NCc3ccc(-n4c(-c5cccnc5N)nc5ccc(-c6ccccc6)nc54)cc3)cc2)n1` [Compound I-13, N-(4-(2-(2-aminopyridin-3-yl)-5-phenyl-3H-imidazo[4,5-b]pyridin-3-yl)benzyl)-4-(5-cyano-3-methyl-1H-pyrazol-1-yl)benzamide], the negative-log IC50 (pIC50) on AKT1 E17K was 6.30 to 6.70; at wildtype AKT1, > 6.30.

With `N#Cc1cc(O)n(-c2ccc(C(=O)NCc3ccc(-n4c(-c5cccnc5N)nc5ccc(-c6ccccc6)nc54)cc3)cc2)n1` [Compound I-15, N-(4-(2-(2-aminopyridin-3-yl)-5-phenyl-3H-imidazo[4,5-b]pyridin-3-yl)benzyl)-4-(3-cyano-5-hydroxy-1H-pyrazol-1-yl)benzamide], the pIC50 was 6.70 to 7.30 at AKT1 E17K and > 6.30 at wildtype AKT1.

With `Cc1cc(C(N)=O)n(-c2ccc(C(=O)NCc3ccc(-n4c(-c5cccnc5N)nc5ccc(-c6ccccc6)nc54)cc3)cc2)n1` [Compound I-16, 1-(4-((4-(2-(2-aminopyridin-3-yl)-5-phenyl-3H-imidazo[4,5-b]pyridin-3-yl)benzyl)carbamoyl)phenyl)-3-methyl-1H-pyrazole-5-carboxamide], the pIC50 on AKT1 E17K was 6.30 to 6.70; on wildtype AKT1, > 6.30.

With `Cc1cc(C(N)=O)nn1-c1ccc(C(=O)NCc2ccc(-n3c(-c4cccnc4N)nc4ccc(-c5ccccc5)nc43)cc2)cc1` [Compound I-17, 1-(4-((4-(2-(2-aminopyridin-3-yl)-5-phenyl-3H-imidazo[4,5-b]pyridin-3-yl)benzyl)carbamoyl)phenyl)-5-methyl-1H-pyrazole-3-carboxamide], the pIC50 on AKT1 E17K is 6.30 to 6.70; at wildtype AKT1, > 6.30.
